From patent US20080145313A1, “Compositions and Methods for the Treatment and Prevention of Neoplastic Disorders” (Genesis Research & Development Corporation Limited, priority 2006, published 2008)

Tested on: target transcript mRNA in A549 cells
Experiment: Level of mRNA of target transcript in A549 cells by quantitative RT-PCR (Tables 12 and 13)
Format: cell-based, human
Conditions: 24 h post-transfection; for mRNA knockdown of energy and metabolism gene target transcript, 0.1 nM: 0.1 nM siRNA; for mRNA knockdown of energy and metabolism gene target transcript, 1 nM: 1 nM siRNA; for mRNA knockdown of energy and metabolism gene target transcript, 10 nM: 10 nM siRNA
Description: A549 cells were transfected as described before with 0.1, 1.0 and 10 nM siRNA as listed in Tables 10 and 11 and the relative mRNA levels quantified 24 h post-transfection. RNA was purified from cells using Trizol® extraction as per the manufacturer's protocol (Invitrogen). cDNA was prepared by digesting approximately 200 ng purified RNA with DNAse I (Invitrogen) for 15 minutes at room temperature, followed by 15 minutes at 65° C. in the presence of 25 mM EDTA. 30 ng random primers were added and incubated for 10 minutes at 65° C., 1 minute on ice; Superscript® III polymerase (Invitrogen) was added in presence of 5 nM DTT (Invitrogen) and 1 mM deoxyribonucleotides (Invitrogen), and the reaction incubated at 25° C. for 5 minutes, followed by an hour at 50° C. cDNA was diluted 1:3 in 10 mM Tris pH 7.0, and quantitative RT-PCR carried out on an ABI Prism 7900HT (Applied Biosciences, Inc., Foster City, Calif.) using FastStart TaqMan SYBRGreen (Roche, Basel, Switzerland) or Platinum SYBR Green (Invitrogen) and 360 nM of the primers specific for gene targets and housekeeping genes HPRT and Lamin. Reduction in target mRNA levels following siRNA transfection are given in Tables 12 and 13, together with the gene specific primer sequences. Primer sequences used for the housekeeping genes HPRT and Lamin are given in SEQ ID NO: 4885-4888.

Substance | mRNA knockdown of energy and metabolism gene target transcript, 0.1 nM | mRNA knockdown of energy and metabolism gene target transcript, 1 nM | mRNA knockdown of energy and metabolism gene target transcript, 10 nM
1686 (AACAGGATCTTCGGCCCCATCTG; chemistry not given here) [compound 1686] | − (<50% mRNA knockdown) | − (<50% mRNA knockdown) | –
1687 (CAACAGGATCTTCGGCCCCATCTG; chemistry not given here) [compound 1687] | − (<50% mRNA knockdown) | − (<50% mRNA knockdown) | –
1688 (CCAACAGGATCTTCGGCCCCATCTG; chemistry not given here) [compound 1688] | + (50-70% mRNA knockdown) | ++ (70-90% mRNA knockdown) | –
1689 (GCCAACAGGATCTTCGGCCCCATCTG; chemistry not given here) [compound 1689] | − (<50% mRNA knockdown) | ++ (70-90% mRNA knockdown) | –
1690 (TGCCAACAGGATCTTCGGCCCCATCTG; chemistry not given here) [compound 1690] | ++ (70-90% mRNA knockdown) | ++ (70-90% mRNA knockdown) | –
1691 (TTGCCAACAGGATCTTCGGCCCCATCTG; chemistry not given here) [compound 1691] | − (<50% mRNA knockdown) | ++ (70-90% mRNA knockdown) | –
1692 (TTTGCCAACAGGATCTTCGGCCCCATCTG; chemistry not given here) [compound 1692] | − (<50% mRNA knockdown) | − (<50% mRNA knockdown) | –
1693 (ATTTGCCAACAGGATCTTCGGCCCCATCTG; chemistry not given here) [compound 1693] | − (<50% mRNA knockdown) | − (<50% mRNA knockdown) | –
1694 (CGTGAAGCTCCCTGACGCCTA; chemistry not given here) [compound 1694] | − (<50% mRNA knockdown) | − (<50% mRNA knockdown) | –
1695 (ACGTGAAGCTCCCTGACGCCTA; chemistry not given here) [compound 1695] | ++ (70-90% mRNA knockdown) | ++ (70-90% mRNA knockdown) | –
1696 (AACGTGAAGCTCCCTGACGCCTA; chemistry not given here) [compound 1696] | − (<50% mRNA knockdown) | − (<50% mRNA knockdown) | –
1697 (GAACGTGAAGCTCCCTGACGCCTA; chemistry not given here) [compound 1697] | ++ (70-90% mRNA knockdown) | + (50-70% mRNA knockdown) | –
1698 (AGAACGTGAAGCTCCCTGACGCCTA; chemistry not given here) [compound 1698] | + (50-70% mRNA knockdown) | + (50-70% mRNA knockdown) | –
1699 (AAGAACGTGAAGCTCCCTGACGCCTA; chemistry not given here) [compound 1699] | − (<50% mRNA knockdown) | ++ (70-90% mRNA knockdown) | –
1700 (CAAGAACGTGAAGCTCCCTGACGCCTA; chemistry not given here) [compound 1700] | + (50-70% mRNA knockdown) | ++ (70-90% mRNA knockdown) | –
3533 (AGATTGGAAGCCACCACATCAGTCTCAACA; chemistry not given here) [compound 3533] | − (<50% mRNA knockdown) | ++ (70-90% mRNA knockdown) | –
3534 (GGGTAGGAGCCCTACACTAGG; chemistry not given here) [compound 3534] | ++ (70-90% mRNA knockdown) | ++ (70-90% mRNA knockdown) | –
3535 (AGGGTAGGAGCCCTACACTAGG; chemistry not given here) [compound 3535] | ++ (70-90% mRNA knockdown) | +++ (>90% mRNA knockdown) | –
3536 (AAGGGTAGGAGCCCTACACTAGG; chemistry not given here) [compound 3536] | ++ (70-90% mRNA knockdown) | +++ (>90% mRNA knockdown) | +++ (>90% mRNA knockdown)
3537 (CAAGGGTAGGAGCCCTACACTAGG; chemistry not given here) [compound 3537] | ++ (70-90% mRNA knockdown) | +++ (>90% mRNA knockdown) | +++ (>90% mRNA knockdown)
3538 (CCAAGGGTAGGAGCCCTACACTAGG; chemistry not given here) [compound 3538] | ++ (70-90% mRNA knockdown) | ++ (70-90% mRNA knockdown) | +++ (>90% mRNA knockdown)
3539 (GCCAAGGGTAGGAGCCCTACACTAGG; chemistry not given here) [compound 3539] | − (<50% mRNA knockdown) | − (<50% mRNA knockdown) | − (<50% mRNA knockdown)
3540 (AGCCAAGGGTAGGAGCCCTACACTAGG; chemistry not given here) [compound 3540] | − (<50% mRNA knockdown) | − (<50% mRNA knockdown) | − (<50% mRNA knockdown)
3541 (GAGCCAAGGGTAGGAGCCCTACACTAGG; chemistry not given here) [compound 3541] | − (<50% mRNA knockdown) | − (<50% mRNA knockdown) | − (<50% mRNA knockdown)
3542 (GGAGCCAAGGGTAGGAGCCCTACACTAGG; chemistry not given here) [compound 3542] | + (50-70% mRNA knockdown) | ++ (70-90% mRNA knockdown) | –
3543 (TGGAGCCAAGGGTAGGAGCCCTACACTAGG; chemistry not given here) [compound 3543] | ++ (70-90% mRNA knockdown) | ++ (70-90% mRNA knockdown) | –
3544 (CTACCGCGAGCTGCGCTGGTT; chemistry not given here) [compound 3544] | ++ (70-90% mRNA knockdown) | ++ (70-90% mRNA knockdown) | –
